Ends that are not written are not given here.

The subject of data set [1] is X. campestris pv. Holcicola. Nature of the data set: Minimum inhibitory concentration (MIC) assay. The class given is cell-based, Xanthomonas campestris pv. Holcicola. The note with it: purified peptide, 96-well plate, LB, 28 °C, 12 h. The protocol:
(§1) The indicator bacteria were inoculated in LB liquid medium (OD600 ≈ 0.8–1.0) and then diluted with the indicator bacteria (OD600 ≈ 0.02–0.05). After that, we added 40 μL of diluted indicator bacteria solution to 96-well titer plates. The AMPs were diluted through a series of concentration gradients, and then an equal volume of peptides was added to the above 96-well plate and incubated at 28 °C for 12 h. […] To determine the time-kill assay, the purified antimicrobial peptide concentration was adjusted to 2× MIC concentration, and then added to a 96-well plate in equal volume with the indicator bacteria, with at least 3 wells for each concentration. After mixing the liquid evenly, it was incubated at 28 °C for 2 h, 4 h, 6 h, 8 h, 10 h, 12 h, and 24 h, and then the OD value was obtained at 600 nm.

For data set [2], the system named is Xanthomonas campestris pv. Holcicola. The class given is cell-based.
In data set [3] the test system is C. michiganensis. Description: Minimum inhibitory concentration (MIC) assay. To be noted: purified peptide, 96-well plate, LB, 28 °C, 12 h. The format is cell-based, Clavibacter michiganensis. Here is the method:
as §1

Data set [4] has as its system X. oryzae pv. oryzae. The format is cell-based, Xanthomonas oryzae pv. oryzae. The note with it: purified peptide, 96-well plate, LB, 28 °C, 12 h.
In data set [5] the test system is C. fangii. The class given is cell-based, Clavibacter fangii.
In data set [6] the test system is C. michiganensis. The format is cell-based, Clavibacter michiganensis.
Data set [7] relates to R. solani. The format is cell-based, Rhizoctonia solani.
Data set [8] has as its system C. michiganensis. The class given is cell-based, Clavibacter michiganensis. This is another data set of the same source.
For data set [9], the system named is C. michiganensis, C. fangii, X. oryzae pv. oryzae and X. oryzae pv. oryzicola. The format is physicochemical. The note with it: read-out agar diffusion test; for antibacterial activity after heat treatment (thermal stability), 4–75 °C: heated 30 min at 25, 50, 75 °C (4 °C control); for antibacterial activity after heat treatment (thermal stability), 100 °C: heated at 100 °C for 30 min. A general note: Agar diffusion results depend on both activity and mobility in agar.

Data set [10] has as its system X. oryzae pv. oryzicola. The class given is cell-based, Xanthomonas oryzae pv. oryzicola. To be noted: 20 μL extracellular peptides on filter paper, 28 °C, 5-7 h, mean ± SD, three independent experiments.
The test system of data set [11] is X. oryzae pv. oryzae. The class given is cell-based, Xanthomonas oryzae pv. oryzae. The note with it: 20 μL extracellular peptides on filter paper, 28 °C, 5-7 h, mean ± SD, three independent experiments.
In data set [12] the test system is F. graminearum. The class given is cell-based, Fusarium graminearum. To be noted: 200 μL extracellular peptide per well, 28 °C, 2–4 days, vs PBS.
Data set [13] deals with X. oryzae pv. oryzae. The class given is cell-based, Xanthomonas oryzae pv. oryzae. The note with it: X. oryzae pv. oryzae co-incubated with peptide 2 h at 28 °C; MIC concentration.
Data set [14] has as its system X. oryzae pv. oryzicola. The format is cell-based, Xanthomonas oryzae pv. oryzicola. To be noted: purified peptide, 96-well plate, LB, 28 °C, 12 h.
Data set [15] relates to C. fangii. Description: Minimum inhibitory concentration (MIC) assay. The format is cell-based, Clavibacter fangii. To be noted: purified peptide, 96-well plate, LB, 28 °C, 12 h. Here is the method: as §1
In data set [16] the test system is porcine erythrocytes. The note with it: 5× MIC, 37 °C, 1 h, absorbance 385 nm, 0.1% Triton X-100 = 100%, PBS = 0%.
The subject of data set [17] is B. cinerea. The class given is cell-based, Botrytis cinerea.
Data set [18] has as its system four tested strains (C. fangii, X. oryzae pv. oryzicola, X. oryzae pv. oryzae, C. michiganensis). The format is cell-based. To be noted: peptides at their MICs, 28 °C, OD 600 nm; after 12 h of treatment.
Data set [19] deals with Gram-positive and Gram-negative bacteria. The class given is physicochemical.
The test system of data set [20] is C. michiganensis. Nature of the data set: Pathogenicity assay (control effect on tomato plants). The class given is in vivo, Clavibacter michiganensis. To be noted: stem acupuncture inoculation of C. michiganensis mixed with equal volume of peptide at 2× MIC, greenhouse, at 7 d; for Disease Index: letters = differences at p < 0.05; for Control Efficacy (%): relative to PBS buffer group. Here is the method: C. michiganensis was cultured to the logarithmic growth phase, then the pathogenic bacteria were mixed with an equal volume of antimicrobial peptides at 2× MIC, and finally tomato plants were inoculated using the stem acupuncture method. The positive control was mixed with an equal volume of polymyxin B and pathogenic bacteria, and the negative control was mixed with an equal volume of PBS buffer and pathogenic bacteria. After inoculation, the tomato plants were cultured under greenhouse conditions, and the disease incidence was observed and recorded. The equation of disease grading criteria, incidence rate, and disease index are found in Supplementary Method S5. […]
Peptide purification procedure
B. subtilis was grown in 300 mL liquid LB medium containing kanamycin (10 mg/L) and incubated at 180 r/min, 37 °C for 72 h. The supernatant was collected by centrifugation at […]
10,000× g for 25 min at 4°C. […]
Pathogenecity assay equation
C. michiganensis disease grading criteria are as follows, grade 0: no wilting or stem necrosis of leaves (or cotyledons); grade 1: mild yellowing or wilting of leaves (or cotyledons); grade 2: moderate wilting or wilting of leaves (or cotyledons) and mild necrosis of stem; Grade 3: severe wilting of leaves (or cotyledons) or severe necrosis of stem; Grade 4: plant death. The formulas for incidence rate, disease index and control efficacy are as follows: Incidence rate

The test system of data set [21] is Gram-negative bacteria and Gram-positive bacteria. Description: MIC assay, range over all tested strains. The format is cell-based. The note with it: purified peptide, 96-well plate, 28 °C, 12 h; range over Gram-negative and Gram-positive strains of Table 4. The protocol: as §1

By MIC is commonly meant the least concentration at which growth counts as inhibited. Low values mean a more susceptible organism, high ones a less susceptible organism. Consider “LAVHHLHSIRGRHHSCTIAQTQANHRHNSYQPNNSSCLAKETDLPTTRSTPATTSSTAPARKSPPASPAPTRQRLCPSPPRGPVSSRHPRRRGQARGRTRAAGVRRTKGYGGKCV [CgR2150, 115-residue antimicrobial peptide from C. globosum cDNA library, expressed and secreted by B. subtilis SCK6]”, for which the MIC in data set [1] is 25 µg/mL; in data set [3] it was 18 µg/mL; in data set [4], 10 µg/mL; in [14] it was 10 µg/mL; in [15] it was 15 µg/mL. For the same substance, the “inhibition of bacterial growth (in words)” value in data set [2] was “significantly inhibit the growth”. For the same substance, the “antimicrobial diameter (bacteriostatic spectrum)” value in [5] was 1.21 ± 0.037 cm; in data set [8], 1.19 ± 0.033 cm; in data set [10], 1.29 ± 0.034 cm; in data set [11], 1.39 ± 0.036 cm. Besides, the “cell membrane damage by SEM” value was “severely damaged, with obvious gaps and ruptures” in [6]; “significantly shrunken and morphologically abnormal” in data set [13]. Moreover, the “inhibition of mycelia growth (in words)” value in data set [7], in [12] and in data set [17] was “significantly inhibit the mycelia growth” in each case. Moreover, the “antibacterial activity after heat treatment (thermal stability), 4–75 °C” value in data set [9] is “obvious antibacterial activity”. In addition, in data set [9], the “antibacterial activity after heat treatment (thermal stability), 100 °C” value was “lost their activity”. The same substance returned a hemolytic activity in data set [16] of 0.32%. In data set [18], the “bacterial growth in time-kill curve” value is listed as “hardly grew”. Also, the “antibacterial activity after UV treatment (UV stability)” value in data set [19] is listed as “stable bacteriostatic activity”. In addition, the “Incidence (%)” value in data set [20] is 13.33 c %. Moreover, the “Disease Index” value in data set [20] came out at 5.83. Moreover, the “Control Efficacy (%)” value in data set [20] is given as 92.56 b %. Also, the “MIC, range over the five tested bacteria” value in data set [21] was 10 to 25 µg/mL.

For “LAVPNFEPPTRTTCPAPTSPGNPCGPPPPASQTRRPPFHPTSPLRR (cysteines drawn unpaired) [CgR3101]”, in [2], the “inhibition of bacterial growth (in words)” value is on record as “significantly inhibit the growth”. Moreover, the “antimicrobial diameter (bacteriostatic spectrum)” value in data set [5] stood at 1.15 ± 0.029 cm; in [8], 1.04 ± 0.033 cm; in data set [10], 1.26 ± 0.024 cm; in data set [11], 1.19 ± 0.036 cm. For the same substance, the “cell membrane damage by SEM” value is “severely damaged, with obvious gaps and ruptures” in data set [6]; “significantly shrunken and morphologically abnormal” in [13]. Further, the “inhibition of mycelia growth (in words)” value in data set [7], in [12] and in [17] was “significantly inhibit the mycelia growth” in each case. Also, in data set [9], the “antibacterial activity after heat treatment (thermal stability), 4–75 °C” value is “obvious antibacterial activity”. Further, the “antibacterial activity after heat treatment (thermal stability), 100 °C” value in [9] was “lost their activity”. Besides, the “bacterial growth in time-kill curve” value in data set [18] is “hardly grew”. Also, the “antibacterial activity after UV treatment (UV stability)” value in [19] was “stable bacteriostatic activity”. Further, the “Incidence (%)” value in data set [20] is 16.67 b %. For the same substance, the “Disease Index” value in data set [20] was 7.50 b. The “Control Efficacy (%)” value in data set [20] amounted to 90.43 c %.

With Polymyxin B [reference compound], in data set [20], the “Incidence (%)” value turned out to be 10.00 d %, the “Disease Index” value is recorded as 3.33 c and the “Control Efficacy (%)” value turned out to be 95.75 a %.

Values taken from paper PMC9099842, “Isolation of Potato Endophytes and Screening of Chaetomium globosum Antimicrobial Genes” (International Journal of Molecular Sciences, 2022).
